According to patent publication US20100169994A1, “ANIMAL MODEL” (priority 2007, published 2010):
Entries after “also recorded” stand apart in the source; their conditions may differ.

Assays:
NK1−/− and NK1+/+ mice [1] = experiment: Microdialysis of extracellular dopamine in frontal cortex/striatum after d-amphetamine; assay type: in vivo; details: d-amphetamine 5 mg/kg i.p.
Procedure: (§1) Experiments were carried out on male NK1−/− (‘knock-out’) and NK1+/+ (wild-type) mice, weighing 25-35 g (i.e. about 6-7 weeks of age). Mice were derived from a 129/Sv×C57BL/6 genetic background that had been crossed with an outbred MF1 strain (Harlan OLAC, Bicester, UK). All mice were taken from a colony maintained at University College London.
Microdialysis probes were constructed in-house and equipped with cuprophan membrane (inner diameter 200 μm, outer diameter 250 μm, molecular weight cut-off 5 kD; Medicell International Ltd., England) forming an active dialysis window of 3.5 mm. Anaesthesia was induced in a closed chamber delivering 2.0% halothane combined with 95% O2/5% CO2 at 2 L/min. The mice were then placed in a stereotaxic frame and anaesthesia maintained, via a face mask, with 1.5% halothane in 95% O2/5% CO2 (2 L/min).
A small incision was made in the scalp to expose the skull and reveal bregma. […] Vital signs were monitored continually to ensure a respiratory rate of 100-190/min (average: 135±20/min). […]
The dopamine content of the dialysis samples was determined by HPLC coupled to electrochemical detection. […] Dopamine was detected using a Coulochem TI detector (ESA) and the mobile phase was conditioned by a guard cell (ESA model 5020). The […] content of the samples was calculated from the peak height of the chromatogram with reference to an external standard. […]

NK1−/− and NK1+/+ mice [2] = experiment: Light/dark exploration box (LDEB), locomotor activity after d-AMP with or without NK1 antagonist pretreatment; assay type: in vivo; details: for locomotor activity (number of lines crossed): d-AMP 2.5 mg/kg i.p.; for behaviour (locomotor activity, response to d-AMP) of NK1+/+ mice given a NK1 antagonist ('pseudo knockout'): RP 67580 5 or 10 mg/kg i.p. or L 733060 5 mg/kg
Procedure: as §1, with “NK1+/+(wild-type)” for “NK1+/+ (wild-type)”
All experiments tested the behaviour of (formerly) treatment-naïve mice in the LDEB and were carried out between 13:00 h and 15:00 h. Each LDEB consisted of a small ‘dark zone’ (length, 15 cm; width, 20 cm; 174 lux) and a larger ‘light zone’ (length 30 cm; width, 20 cm; 346 lux). The walls and floor of the ‘dark zone’ were coloured black. The walls and floor of the ‘light zone’ were coloured white. The floor of both zones was marked as a grid of 5×5 cm squares (12 in the dark zone, 24 in the light zone) which was used to score locomotor activity. The partition separating the two zones incorporated a small (white) guillotine-style door (height 10.5 cm, width 7.5 cm), which could be raised to allow animals to commute between the two compartments. Mice were tested in pairs in two LDEBs, placed side by side. At 13:00 h, each mouse was placed in the dark zone of a LDEB, with the partition door closed. After 30 min in the dark zone, mice of each genotype were randomly assigned to one of six treatment groups (n=3˜4) and given an injection (10 mL/kg; i.p) of either vehicle (one drop of Tween 80 in saline to appropriate volume) or the NK1 antagonist, RP 67580 (5 or 10 mg/kg). The same subjects were given a second injection or either saline or d-amphetamine (2.5 mg/kg, i.p), 30 min later.
At 14:30 h, each mouse was transferred to the centre of the novel light zone, facing away from the guillotine style door. The door was immediately lifted to allow the animals to commute freely between the two compartments. Their behaviour was recorded with a Sony Handycam Vision video recorder for 30 min. The number of lines crossed by all four paws of the mouse (as an index of locomotor activity) was scored ‘blind’, in 5-min time-bins.
In a second experiment, this protocol was repeated, substituting the NK1 antagonist, L 733060 (5 mg/kg) in place of RP 67580. All other details (including Tween vehicle) were the same.
RP 67580 was administered at 5 or 10 mg/kg; dissolved in a drop of Tween 80 and adjusted to the appropriate concentration by adding 0.9% saline. […]
The data were analysed by three-way (experiment testing RP 67580) or two-way (for […]) ANOVA using ‘genotype’, ‘drug’ and ‘dose’ (if appropriate) as main factors. […] Data are expressed as means±s.e.mean and P≦0.05 was set as the criterion for significance.

NK1−/− and NK1+/+ mice [3] = experiment: Light/dark exploration box (LDEB), locomotor activity after methylphenidate; assay type: in vivo; details: methylphenidate 2.5 mg/kg i.p.
Procedure: as §1
All experiments tested the behaviour of (formerly) treatment-naïve mice in the LDEB and were carried out between 13:00 h and 15:00 h. Each LDEB consisted of a small ‘dark zone’ (length, 15 cm; width, 20 cm; 174 lux) and a larger ‘light zone’ (length, 30 cm; width 20 cm; 346 lux). The walls and floor of the ‘dark zone’ were coloured black. The walls and floor of the ‘light zone’ were coloured white. […]
30 min later, the mice were transferred to the centre of the novel light zone, facing away from the guillotine style door. […] Their behaviour was recorded with a Sony Handycam Vision video recorder for 30 min. The number of lines crossed by all four paws of the mouse (an index of locomotor activity) was scored ‘blind’, in 10-min time-bins. […]
The data were analysed by two-way ANOVA using ‘genotype’ and ‘treatment as main factors. […] Data are expressed as means±s.e.mean and […] was set as the criterion for significance.

[4] = system: NK1−/− and wild-type mice; details: wild-type versus NK1−/− mice; FIG. 13
Procedure: The effect of betaxolol and desipramine was tested using similar protocols to those used for testing the effect of d-amphetamine.

NK1−/− and NK1+/+ mice [5] = experiment: Light/dark exploration box, locomotor activity after desipramine; assay type: in vivo; details: desipramine 10 mg/kg i.p., FIG. 3
Procedure: Experiments were carried out on male NK1−/− (‘knock-out’) and NK1+/+(wild-type) mice, weighing 25-31 g (i.e. about 6-7 weeks of age). Mice were derived from a 129/Sv×C57BL/6 genetic background that had been crossed with an outbred MF1 strain (Harlan OLAC, Bicester, UK). All mice were taken from a colony maintained at University College London. All experiments were performed in treatment-naïve mice, between 13:00 h and 17:00 h. Behavioural tests were carried out in a custom-built light/dark exploration box (LDEB) (length 45 cm; width 20 cm; depth 25 cm). The test box consisted of a small ‘dark zone’ (length 15 cm; 4 lux) and a larger ‘light zone’ (length 30 cm; 20 lux). The walls and floor of the ‘dark zone’ were coloured black. […] The behaviour of the mouse was recorded on video for the following 30 min. The following behaviours were later scored ‘blind’, in 10 min time-bins: i) latency to leave the light zone following forced entry (anxiety-like behaviour or impulsivity?) ii) latency to first return to the light zone following the first exit (the appearance of all four paws was the criterion for re-entry) (impulsivity) iii) number of returns to the light zone (impulsivity) iv) number of lines crossed by all four paws of the mouse (as an index of locomotor activity) Data were analysed by two-way analysis of variance (ANOVA) using ‘genotype’ and ‘treatment’ as main factors. […]

NK1R−/− and NK1R+/+ mice = experiment: Activity meter (locomotor activity chamber), ambulatory activity; assay type: in vivo; details: FIG. 2
Procedure: Behavioural tests were carried out in a standard locomotor activity chamber comprising a custom-made transparent perspex box (length 30 cm; width 19 cm; depth 18 cm). The box was placed in the centre of an activity meter (410×410 mm, Columbia Instruments, USA) which was equipped with parallel infrared beams spanning the chamber. Ambulatory activity was scored whenever the mouse interrupted two adjacent beams. Light intensity within the chamber was 82 lux. All experiments were performed in drug-naive mice, between 14:00 h and 18:30 h. […] The apparatus was cleaned thoroughly with water after each experiment.

Compound: C[C@H](N)Cc1ccccc1 [d-AMP, d-amphetamine]
- extracellular dopamine in the frontal cortex/striatum (NK1−/− and NK1+/+ mice [1]; NK1+/+ mice): increased
- extracellular dopamine in the frontal cortex/striatum (NK1−/− and NK1+/+ mice [1]; NK1−/− mice): no d-AMP induced increase; also recorded: not NK1−/− mice
- locomotor activity (number of lines crossed) (NK1−/− and NK1+/+ mice [2]; NK1+/+ mice): increased
- locomotor activity (number of lines crossed) (NK1−/− and NK1+/+ mice [2]; NK1−/− mice): reduced

Compound: COC(=O)C(c1ccccc1)C1CCCCN1 (stereo not drawn) [methylphenidate]
- locomotor activity (number of lines crossed) (NK1−/− and NK1+/+ mice [3]; NK1+/+ mice): increased locomotor activity
- locomotor activity (number of lines crossed) (NK1−/− and NK1+/+ mice [3]; NK1−/− mice): reduced activity

Compound: CC(C)NCC(O)COc1ccc(CCOCC2CC2)cc1 (stereo not drawn) [betaxolol]
- locomotor activity [4]: not all drugs that increase locomotor activity in wild-type mice reduce it in NK1^−/− mice

Compound: COc1ccccc1CC(=N)N1C[C@@H]2C(=O)CCC(c3ccccc3)(c3ccccc3)[C@@H]2C1 [RP 67580]
- behaviour (locomotor activity, response to d-AMP) of NK1+/+ mice given a NK1 antagonist ('pseudo knockout') (NK1−/− and NK1+/+ mice [2]; NK1+/+ mice): Mimics that of Nk1−/− Mice

Compound: FC(F)(F)c1cc(CO[C@H]2CCCN[C@H]2c2ccccc2)cc(C(F)(F)F)c1 [L733060]
- behaviour (locomotor activity, response to d-AMP) of NK1+/+ mice given a NK1 antagonist ('pseudo knockout') (NK1−/− and NK1+/+ mice [2]; NK1+/+ mice): Mimics that of Nk1−/− Mice

Compound: CNCCCN1c2ccccc2CCc2ccccc21 [desipramine]
- hyperactivity (locomotor activity) in a light/dark exploration box (NK1−/− and NK1+/+ mice [5]): reduction
- locomotor activity in an activity chamber (NK1R−/− and NK1R+/+ mice; NK1R+/+ mice): not NK1R+/+ mice
- locomotor activity in an activity chamber (NK1R−/− and NK1R+/+ mice; NK1R−/− mice): reduces locomotor activity
